{
  "source": "paper PMC7357011",
  "about": "“Adenosine-5′-Phosphosulfate- and Sulfite Reductases Activities of Sulfate-Reducing Bacteria from Various Environments” (Biomolecules, 2020)",
  "key": {"[1]": {"target": "T1, sulfite reductase (D. orale Rod-9) (Desulfomicrobium orale, UniProt A0A109W607+A0A109W618)", "T1 construct": "gene AXF15_07380; native enzyme in crude cell-free extract, not purified; NADH-oxidation read-out", "T1 sequence (A0A109W618 1-437)": "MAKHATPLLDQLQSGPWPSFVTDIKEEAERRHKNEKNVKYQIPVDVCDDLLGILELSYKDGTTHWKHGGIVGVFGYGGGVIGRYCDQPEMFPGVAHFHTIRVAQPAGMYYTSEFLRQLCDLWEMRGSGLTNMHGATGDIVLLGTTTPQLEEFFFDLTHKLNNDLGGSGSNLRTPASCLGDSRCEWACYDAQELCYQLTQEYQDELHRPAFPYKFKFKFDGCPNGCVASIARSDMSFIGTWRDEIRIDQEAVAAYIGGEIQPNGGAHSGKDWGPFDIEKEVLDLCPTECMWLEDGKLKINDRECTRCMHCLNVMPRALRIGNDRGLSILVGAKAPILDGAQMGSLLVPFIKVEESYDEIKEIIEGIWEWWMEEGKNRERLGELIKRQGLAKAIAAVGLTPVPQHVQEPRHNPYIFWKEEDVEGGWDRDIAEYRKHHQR", "T1 sequence (A0A109W607 1-386)": "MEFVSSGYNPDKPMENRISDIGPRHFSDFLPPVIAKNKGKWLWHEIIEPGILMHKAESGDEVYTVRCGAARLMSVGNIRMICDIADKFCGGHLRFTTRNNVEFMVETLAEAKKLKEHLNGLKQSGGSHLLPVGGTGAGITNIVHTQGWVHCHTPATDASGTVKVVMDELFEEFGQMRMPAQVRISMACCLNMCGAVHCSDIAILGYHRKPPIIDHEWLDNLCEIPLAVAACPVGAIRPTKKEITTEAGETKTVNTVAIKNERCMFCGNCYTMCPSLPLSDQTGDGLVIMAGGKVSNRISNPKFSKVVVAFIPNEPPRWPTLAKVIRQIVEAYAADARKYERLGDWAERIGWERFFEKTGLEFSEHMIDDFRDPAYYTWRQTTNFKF", "assay": "NADH oxidation at […] nm, Lineweaver-Burk", "type": "cell-based", "conditions": "0.2 mmol/L NADH, EDTA; Tris-HCl pH 8.0 (started with HCl); 35 °C"}, "[2]": {"system": "T2, sulfite reductase (D. desulfuricans DSM642)", "T2 construct": "gene dsrA; native enzyme in crude cell-free extract, not purified; NADH-oxidation read-out", "assay": "NADH oxidation at […] nm, Lineweaver-Burk", "type": "cell-based, Desulfovibrio desulfuricans", "conditions": "0.2 mmol/L NADH, EDTA; Tris-HCl pH 7.5 (started with HCl); 27 °C"}, "[3]": {"system": "T3, sulfite reductase (D. vulgaris DSM644)", "T3 construct": "gene dsrA; native enzyme in crude cell-free extract, not purified; NADH-oxidation read-out", "assay": "NADH oxidation at […] nm, Lineweaver-Burk", "type": "biochemical, Nitratidesulfovibrio vulgaris", "conditions": "0.2 mmol/L NADH, EDTA; Tris-HCl pH 7.5 (started with HCl); 27 °C"}, "[4]": {"target": "T4, APS reductase (D. desulfuricans DSM642) (Desulfovibrio desulfuricans, UniProt Q9L767)", "T4 construct": "gene aprB; native enzyme in crude cell-free extract, not purified; with Adenylylsulfate reductase subunit beta", "T4 sequence (Q9L767 1-662)": "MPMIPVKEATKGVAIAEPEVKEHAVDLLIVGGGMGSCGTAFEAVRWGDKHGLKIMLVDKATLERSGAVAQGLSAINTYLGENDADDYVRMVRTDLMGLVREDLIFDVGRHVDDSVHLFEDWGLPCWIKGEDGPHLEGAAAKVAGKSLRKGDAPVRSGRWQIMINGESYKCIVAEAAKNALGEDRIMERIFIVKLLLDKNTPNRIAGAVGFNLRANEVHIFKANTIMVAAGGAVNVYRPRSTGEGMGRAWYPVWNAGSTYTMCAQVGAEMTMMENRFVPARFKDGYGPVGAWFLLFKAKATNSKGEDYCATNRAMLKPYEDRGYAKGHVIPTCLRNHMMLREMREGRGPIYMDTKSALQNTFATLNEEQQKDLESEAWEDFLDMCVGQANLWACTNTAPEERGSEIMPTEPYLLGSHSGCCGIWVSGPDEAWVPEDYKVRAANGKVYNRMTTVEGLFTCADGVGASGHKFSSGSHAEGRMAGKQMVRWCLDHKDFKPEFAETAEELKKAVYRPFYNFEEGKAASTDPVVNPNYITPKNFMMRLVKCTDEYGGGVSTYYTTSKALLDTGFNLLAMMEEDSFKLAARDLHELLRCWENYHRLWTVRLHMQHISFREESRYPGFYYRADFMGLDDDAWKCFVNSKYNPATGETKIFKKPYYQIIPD", "T4 sequence (Q9L768 1-162 partner)": "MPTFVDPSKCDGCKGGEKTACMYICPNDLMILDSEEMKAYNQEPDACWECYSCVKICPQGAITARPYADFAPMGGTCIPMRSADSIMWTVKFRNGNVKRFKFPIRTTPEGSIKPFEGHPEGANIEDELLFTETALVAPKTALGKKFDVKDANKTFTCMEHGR", "assay": "AMP-dependent ferricyanide reduction at […] nm, Lineweaver-Burk", "type": "cell-based", "conditions": "reverse direction, EDTA, Tris-HCl pH 7.5, 27 °C, varied substrate sulfite (methods)"}, "[5]": {"system": "T5, sulfite reductase (Desulfotomaculum sp. TC3)", "T5 construct": "gene dsrA; native enzyme in crude cell-free extract, not purified; NADH-oxidation read-out", "assay": "NADH oxidation at […] nm, Lineweaver-Burk", "type": "biochemical", "conditions": "0.2 mmol/L NADH, EDTA; Tris-HCl pH 7.5 (started with HCl); 27 °C"}, "[6]": {"system": "T6, sulfite reductase (D. piger Vib-7)", "T6 construct": "gene dsrA; native enzyme in crude cell-free extract, not purified; NADH-oxidation read-out", "assay": "NADH oxidation at […] nm, Lineweaver-Burk", "type": "cell-based, Desulfovibrio piger", "conditions": "0.2 mmol/L NADH, EDTA; Tris-HCl pH 8.0 (started with HCl); 35 °C"}, "[7]": {"system": "T7, APS reductase (Desulfovibrio sp. TC2)", "T7 construct": "gene aprA; native enzyme in crude cell-free extract, not purified; with Adenylylsulfate reductase subunit beta", "assay": "AMP-dependent ferricyanide reduction at […] nm, Lineweaver-Burk", "type": "cell-based", "conditions": "reverse direction, EDTA, Tris-HCl pH 7.5, 27 °C, varied substrate sulfite (methods)"}, "[8]": {"system": "T8, APS reductase (Desulfomicrobium sp. TC4)", "T8 construct": "gene aprA; native enzyme in crude cell-free extract, not purified; with Adenylylsulfate reductase subunit beta", "assay": "AMP-dependent ferricyanide reduction at […] nm, Lineweaver-Burk", "type": "cell-based", "conditions": "reverse direction, EDTA, Tris-HCl pH 7.5, 27 °C, varied substrate sulfite (methods)"}, "[9]": {"system": "T9, sulfite reductase (Desulfovibrio sp. TC2)", "T9 construct": "gene dsrA; native enzyme in crude cell-free extract, not purified; NADH-oxidation read-out", "assay": "NADH oxidation at […] nm, Lineweaver-Burk", "type": "cell-based", "conditions": "0.2 mmol/L NADH, EDTA; Tris-HCl pH 7.5 (started with HCl); 27 °C"}, "[10]": {"system": "T10, sulfite reductase (Desulfomicrobium sp. TC4)", "T10 construct": "gene dsrA; native enzyme in crude cell-free extract, not purified; NADH-oxidation read-out", "assay": "NADH oxidation at […] nm, Lineweaver-Burk", "type": "cell-based", "conditions": "0.2 mmol/L NADH, EDTA; Tris-HCl pH 7.5 (started with HCl); 27 °C"}, "[11]": {"system": "T11, APS reductase (Desulfotomaculum sp. TC3)", "T11 construct": "gene aprA; native enzyme in crude cell-free extract, not purified; with Adenylylsulfate reductase subunit beta", "assay": "AMP-dependent ferricyanide reduction at […] nm, Lineweaver-Burk", "type": "cell-based", "conditions": "reverse direction, EDTA, Tris-HCl pH 7.5, 27 °C, varied substrate sulfite (methods)"}, "[12]": {"system": "T12, sulfite reductase (Desulfovibrio sp. 10)", "T12 construct": "gene dsrA; native enzyme in crude cell-free extract, not purified; NADH-oxidation read-out", "assay": "NADH oxidation at […] nm, Lineweaver-Burk", "type": "biochemical", "conditions": "0.2 mmol/L NADH, EDTA; Tris-HCl pH 7.5 (started with HCl); 27 °C"}},
  "data": [
    {"substance": "sulfite", "values": [
      {"measurement": "Km", "setting": "[1]", "result": 3.86, "unit": "mM"},
      {"measurement": "Km", "setting": "[2]", "result": 9.97, "unit": "mM"},
      {"measurement": "Km", "setting": "[3]", "result": 31.7, "unit": "mM"},
      {"measurement": "Km", "setting": "[4]", "result": 2.12, "unit": "mM"},
      {"measurement": "Km", "setting": "[5]", "result": 46.2, "unit": "mM"},
      {"measurement": "Km", "setting": "[6]", "result": 3.53, "unit": "mM"},
      {"measurement": "Km", "setting": "[7]", "result": 1.59, "unit": "mM"},
      {"measurement": "Km", "setting": "[8]", "result": 1.1, "unit": "mM"},
      {"measurement": "Km", "setting": "[9]", "result": 26.1, "unit": "mM"},
      {"measurement": "Km", "setting": "[10]", "result": 19.4, "unit": "mM"},
      {"measurement": "Km", "setting": "[11]", "result": 1.49, "unit": "mM"},
      {"measurement": "Km", "setting": "[12]", "result": 46.7, "unit": "mM"}
    ]}
  ]
}
